Test results reported in article PMC12663261 (Nature Communications, 2025).

Key:
[1] = target: T1, hcis-PT (DHDDS / NgBR complex) (Homo sapiens, UniProt Q86SQ9+Q96E22); assay: HDX-MS, ligand-bound versus apo; format: binding; conditions: 6-molar excess ligand, 5 mM MgCl2, pD 7.5, 4 °C; active site
T1 sequence (Q86SQ9 1-333): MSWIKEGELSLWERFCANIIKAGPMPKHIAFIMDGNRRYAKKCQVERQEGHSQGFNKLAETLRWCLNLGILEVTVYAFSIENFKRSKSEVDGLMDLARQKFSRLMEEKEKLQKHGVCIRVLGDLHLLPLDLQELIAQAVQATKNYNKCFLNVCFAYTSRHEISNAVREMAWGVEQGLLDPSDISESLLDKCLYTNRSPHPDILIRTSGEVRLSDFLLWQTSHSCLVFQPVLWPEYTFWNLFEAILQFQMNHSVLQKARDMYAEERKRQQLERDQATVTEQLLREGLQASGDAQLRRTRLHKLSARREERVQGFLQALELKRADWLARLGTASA
T1 sequence (Q96E22 73-293): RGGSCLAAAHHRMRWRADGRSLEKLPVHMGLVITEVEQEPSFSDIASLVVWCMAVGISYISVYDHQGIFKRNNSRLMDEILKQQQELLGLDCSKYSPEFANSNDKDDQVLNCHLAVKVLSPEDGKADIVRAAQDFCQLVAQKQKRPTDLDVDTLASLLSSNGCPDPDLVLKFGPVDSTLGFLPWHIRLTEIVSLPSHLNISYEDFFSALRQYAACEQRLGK

[2] = target: T1, hcis-PT (DHDDS / NgBR complex); assay: fluorescence increase upon chain elongation; format: biochemical; conditions: 5 uM with 100 uM IPP, 0.2 uM enzyme, 0.5 mM MgCl2, pH 7.5

SMILES	HDX-MS, ligand-bound versus apo [1]	fluorescence increase upon chain elongation (Ex 352 nm, Em 425 nm) [2]
CC(C)=CCC/C(C)=C/CC/C(C)=C/COP(=O)(O)OP(=O)(O)O [FPP]	binding of either FPP or GGPP resulted in decreased HDX throughout the active site	
CC(C)=CCC/C(C)=C/CC/C(C)=C/CC/C(C)=C/COP(=O)(O)OP(=O)(O)O [GGPP]	binding of either FPP or GGPP resulted in decreased HDX throughout the active site	
CNc1ccccc1C(=O)OC/C(C)=C/CC/C(C)=C/COP(=O)(O)OP(=O)(O)O [MANT-O-GPP, (2E,6E)-8-O-(N-methyl-2-aminobenzoyl)-3,7-dimethyl-2,6-octandien-1-pyrophosphate]		MANT-O-GPP exhibits an increase in fluorescence upon chain elongation by hcis-PT
